From patent US12421276B2 (priority 2016, dated 2025)
“And” between values parts separate entries of the source, which are not always exact repeats. Identical values can stand only once. Like-named read-outs stand apart in the source and are kept apart here. One block for each compound: values may come before it. Where a SMILES comes first, the peptide text is derived from it. [ ]: non-standard residue; d: D form. The star is where a group is joined. Hexanoyl = CCCCCC(=O)*; Ahx = NCCCCCC(=O)O

Key:
[1] = assay type: in vivo, rat
Procedure: • 1. Eight (8) male JVC SD rats (purchased from Charles River Lab) were monitored daily for body condition and health status during the 3-5 days acclimation period. The rats were randomly assigned into […] (n=4). • 2. […] The dosed rats were individually placed into a metabolic cage, and have access to food and water at all times. The urine from each rat was collected daily from the metabolic cages, and kept in dry ice. • 4. At predose (0 min), 5 min, 15 min, 30 min, 1 hr, 2 hr, 8 hr, and 24 hr post dosing, approximately 200 ul blood samples were collected from each rat and transferred to EDTA tubes. • 5. The blood samples in EDTA vials were centrifuged at 4° C. and 6,000 rpm for 10 minutes to generate ˜100 μl of plasma per sample. Blood samples were processed as quickly as possible and remain no longer than 2 min at room temperature and no longer than 15 minutes at 4° C. prior to processing. • 6. All samples were transferred for bioanalytic assay using LCMS

[2] = Metabolic stability in simulated gastric fluid (SGF), pH 1.2, with or without pepsin; assay type: in vitro ADME
Procedure: (§1) Metabolic Stability in SIF and SGF (Simulated Intestinal and Gastric Fluid)
Buffer 1=SGF without enzyme
Buffer 2=SGF with 0.32% pepsin
(§2) SIF was prepared freshly with 8.7 mM NaOH, 28.65 mM NaH2PO4, 105.85 mM NaCl, with a final pH of 6.8. SGF was prepared freshly with 34.2 mM NaCl, with a final pH of 1.2. Enzymes such as pepsin or pancreatin were added to some buffers. Human and rat plasma (K2 EDTA) were purchased from BioreclamationIVT.
(§3) Compounds were dissolved as 1.5 mM DMSO stocks. Compounds were transferred to SIF, SGF, or plasma at 5 μM on a 96-well deep well plate. After mixing, samples were transferred to several 96-well plates (25 μL/well), and incubated at 37° C. The extent of metabolism was calculated as the disappearance of the test compound, compared to the 0-min control reaction incubations. Candesartan Cilexetil and omeprazole were included as positive controls for SIF and SGF, respectively, to verify assay performance.
(§4) At each of the time points, 150 μL of quench solution (100% acetonitrile with 0.1% formic acid) with internal standard (bucetin for positive ESI mode and warfarin for negative ESI mode) was transferred to each well. Plates were sealed and centrifuged at 4° C. for 15 minutes at 4000 rpm. The supernatant was transferred to fresh plates for LC/MS/MS analysis.
(§5) Elution conditions are detailed in the table below.
(§6) Initial rates of the clearance of test compounds were calculated using linear regression of semi-log plot of % remaining of compounds versus time. The elimination rate constant (equals to −slope) of the linear regression was then used to determine t½ values.

[3] = Plasma stability study, rat plasma; assay type: in vitro ADME
Procedure: (§7) Human and rat plasma (K2 EDTA) were obtained from Bioreclamation.
(§8) Compounds were dissolved as 0.3 mM DMSO stocks. Compounds were transferred to the plasma at 1 μM on a 96-well deep well plate. After mixing, samples were transferred to several 96-well plates (25 μL/well), and incubated at 37° C. The extent of metabolism was calculated as the disappearance of the test compound, compared to the 0-min control reaction incubations. Propantheline was included as a positive control to verify assay performance.
as §4, with “(50% acetonitrile, 50% methanol” for “(100% acetonitrile”, “0.05%” for “0.1%”
as §5, §6

[4] = Plasma stability study, human plasma; assay type: in vitro ADME
Procedure: as §7, §8
as §4, with “(50% acetonitrile, 50% methanol” for “(100% acetonitrile”, “0.05%” for “0.1%”
as §5, §6

[5] = test system: Caco-2 cells; assay: Caco-2 permeability study with or without P-gp inhibitor GF120918; conditions: for Abs. Quotient: (Papp A-B with inhibitor − without inhibitor)/Papp A-B with inhibitor; for Caco-2 Cells Permeability Recovery Rate: 1 hr, pH 7.4
Procedure: Buffer=HBSS, pH 7.4 with 5 mM HEPES
Caco-2 cell plates were obtained commercially and were maintained for 21 days at 37° C. with 5% CO2. Cells were washed with Hank's Balanced Salt Solution (HBSS) 30 min before starting the experiment. Test compound solutions were prepared by diluting from DMSO stock into HBSS buffer in the presence or absence of 10 μM of P-gp inhibitor GF120918. The final DMSO concentration is 0.2%. Prior to each experiment, cell monolayer integrity was verified by transendothelial electrical resistance (TEER). Transport experiment was initiated by adding test compounds to the apical (75 μL) side. Transport plates were incubated at 37° C. in a humidified incubator with 5% CO2. Samples were taken from the donor and acceptor compartments after 1 hr and analyzed by liquid chromatography with tandem mass spectrometry (LC/MS/MS).
Apparent permeability (Papp) values were calculated using the following equation: Papp=(dQ/dt)/A/C0
where dQ/dt is the initial rate of amount of test compound transported across cell monolayer, A is the surface area of the filter membrane, and C0 is the initial concentration of the test compound. C0 is calculated for each condition using a 4-point calibration curve.
Absorption quotient between the two assay conditions was calculated by the following equation:
Absorption quotient (AQ)=(Papp, A-B with inhibitor−Papp, A-B without inhibitor)/Papp, A-B with inhibitor where Papp, A-B with inhibitor and Papp, A-B without inhibitor represent the apparent permeability of test compound from the apical to basal side of the cellular monolayer in the presence and absence of 10 μM P-gp inhibitor GF120918, respectively.
All samples were analyzed on LC/MS/MS using an AB Sciex API 4000 instrument, coupled to a Shimadzu LC-20AD LC Pump system. Analytical samples were separated using a Waters Atlantis T3 dC18 reverse phase HPLC column (10 mm×2.1 mm) at a flow rate of 0.5 mL/min. The mobile phase consisted of 0.1% formic acid in water (solvent A) and 0.1% formic acid in acetonitrile (solvent B).

[6] = Metabolic stability in simulated intestinal fluid (SIF), pH 6.8, with or without pancreatin; assay type: in vitro ADME
Procedure: as §1
Buffer 3=SIF without enzyme
Buffer 4=SIF with 1% pancreatin
as §2, §3, §4, §5, §6

[7] = Rat, PO, 10 mg/kg equiv., n = 4, analyte: Parent (BASE STRUCTURE)
[8] = rat, dosed as Base Structure 20 mg/kg, analyte Parent (Base Structure), Average
[9] = rat, dosed as Base Structure 20 mg/kg, analyte Parent (Base Structure), Combined (average ± std. dev.)
[10] = rat, dosed as Base Structure 20 mg/kg, analyte Parent (Base Structure), individual animals
[11] = +GF120918 (10 μM), 10 μM compound

SMILES: CCCCCC(=O)N[C@@H](Cc1ccc(O)cc1)C(=O)N[C@H](C(=O)NCCCCCC(N)=O)[C@@H](C)CC [Base Structure, N-hexanoic-L-tyrosine-L-isoleucine-(6)-aminohexanoic amide, reference compound] (Hexanoyl-Tyr-Ile-[Ahx]-NH2)
- AUC0-24 [1, 7]: 0.4 ± 0.2 ng·h/mL
- Cmax [1, 7]: 0.9 ± 0.5 ng/mL
- Tmax [1, 7]: 24 ± 30 min
- AUC 0-t [1, 8]: 0.4468 ng·h/mL
- Cmax [1, 8]: 0.9267 ng/mL
- Tlag [1, 8]: 0 h
- Tmax [1, 8]: 26.6 min
- AUC 0-t [1, 9]: 0.4 ± 0.2 ng·h/mL
- Cmax [1, 9]: 0.9 ± 0.5 ng/mL
- Tlag [1, 9]: 0 ± 0 h
- Tmax [1, 9]: 24 ± 30 min
- AUC 0-t [1, 10]: 0.6164 ng·h/mL and 0.5175 ng·h/mL and 0.2066 ng·h/mL
- Cmax [1, 10]: 0.689 ng/mL and 1.54 ng/mL and 0.551 ng/mL
- Tlag [1, 10]: 0 h
- Tmax [1, 10]: 4.8 min and 15 min and 60 min
- SGF Stability (pH 1.2) Half-Life (min) ([2]; +Pepsin (0.32%), 5 μM, 37° C.): 26.0 min
- SGF Stability (pH 1.2) 0 min ([2]; +Pepsin (0.32%), 5 μM, 37° C.): 100%
- SGF Stability (pH 1.2) 60 min ([2]; +Pepsin (0.32%), 5 μM, 37° C.): 13%
- SGF Stability (pH 1.2) 240 min ([2]; +Pepsin (0.32%), 5 μM, 37° C.): 0.2%
- SGF Stability (pH 1.2) Half-Life (min) ([2]; −Pepsin, 5 μM, 37° C.): Neg.
- SGF Stability (pH 1.2) 0 min ([2]; −Pepsin, 5 μM, 37° C.): 100%
- SGF Stability (pH 1.2) 60 min ([2]; −Pepsin, 5 μM, 37° C.): 127%
- SGF Stability (pH 1.2) 240 min ([2]; −Pepsin, 5 μM, 37° C.): 122%
- Plasma Stability Half-Life ([3]; Rat plasma, 1 μM, 37° C.): 1095.1 min
- Plasma Stability (% Parent Remaining) 0 min ([3]; Rat plasma, 1 μM, 37° C., 0 min): 100%
- Plasma Stability (% Parent Remaining) 60 min ([3]; Rat plasma, 1 μM, 37° C., 60 min): 87%
- Plasma Stability (% Parent Remaining) 120 min ([3]; Rat plasma, 1 μM, 37° C., 120 min): 89%
- Plasma Stability (% Parent Remaining) 240 min ([3]; Rat plasma, 1 μM, 37° C., 240 min): 83%
- Plasma Stability Half-Life ([4]; Human plasma, 1 μM, 37° C.): 12558.0 min
- Plasma Stability (% Parent Remaining) 0 min ([4]; Human plasma, 1 μM, 37° C., 0 min): 100%
- Plasma Stability (% Parent Remaining) 60 min ([4]; Human plasma, 1 μM, 37° C., 60 min): 98%
- Plasma Stability (% Parent Remaining) 120 min ([4]; Human plasma, 1 μM, 37° C., 120 min): 102%
- Plasma Stability (% Parent Remaining) 240 min ([4]; Human plasma, 1 μM, 37° C., 240 min): 98%
- Abs. Quotient [5]: 0.84 and 0.82
- Caco-2 Cells Permeability Recovery Rate [5, 11]: 83% and 96%
- Caco-2 Cells Permeability Recovery Rate ([5]; −GF120918, 10 μM compound): 87% and 91%
- SIF Stability (pH 6.8) Half-Life (min) ([6]; −Pancreatin, 5 μM, 37° C.): Neg.
- SIF Stability (pH 6.8) 0 min ([6]; −Pancreatin, 5 μM, 37° C., 0 min): 100%
- SIF Stability (pH 6.8) 60 min ([6]; −Pancreatin, 5 μM, 37° C., 60 min): 119%
- SIF Stability (pH 6.8) 240 min ([6]; −Pancreatin, 5 μM, 37° C., 240 min): 113%

- SGF Stability (pH 1.2) Half-Life (min) ([2]; simulated gi fluid, pH 1.2): 389.4 min
- Plasma Stability Half-Life ([3]; rat, plasma): 8.2 min
- Plasma Stability Half-Life ([4]; human, plasma): 10.1 min
- Abs. Quotient [5]: 0.77
- Caco-2 Cells Permeability Recovery Rate [5, 11]: 83%
- Caco-2 Cells Permeability Recovery Rate ([5]; −GF120918, 10 μM compound): 91%
- SIF Stability (pH 6.8) Half-Life (min) ([6]; simulated gi fluid, pH 6.8): 34.7 min
SMILES: CCCCCC(=O)NC(Cc1ccc(OC(=O)CN(C)C)cc1)C(=O)NC(C(=O)NCCCCCC(N)=O)C(C)CC (stereo not shown) [Compound A25]

- Plasma Stability Half-Life ([3]; rat, plasma): 31.9 min
- Plasma Stability Half-Life ([4]; human, plasma): 13.2 min
- Abs. Quotient [5]: 0.70
- Caco-2 Cells Permeability Recovery Rate [5, 11]: 94%
- Caco-2 Cells Permeability Recovery Rate ([5]; −GF120918, 10 μM compound): 90%
SMILES: CCCCCC(=O)NC(Cc1ccc(OC(=O)C(N)C(C)C)cc1)C(=O)NC(C(=O)NCCCCCC(N)=O)C(C)CC (stereo not shown) [Compound A27] (Hexanoyl-Tyr(Val)-Ile-[Ahx]-NH2; configuration not given here)
